Patent US9062041B2 (Bayer Intellectual Property GmbH, priority 2011, dated 2015)

Legend:
Assay type in all cases: cell-based
[1] = target: EP2 subtype of the human PGE2 receptor (Homo sapiens, UniProt P43116); assay: cAMP antagonism test on the human EP2 receptor (HTRF cAMP detection); settings: hEP2 receptor, read-out: Antagonism hEP2 IC50
From the text: 1. Detection of Antagonism to the Human Prostaglandin E2 (Subtype EP2) Receptor Signal
The binding of PGE2 to the EP2 subtype of the human PGE2 receptor induces the activation of membrane-located adenylate cyclases and leads to the formation of cAMP. In the presence of the phosphodiesterase inhibitor IBMX, the cAMP accumulated owing to this stimulation and released by cell lysis is used in a competitive detection method. In this test, the cAMP present in the lysate competes with a fluorescence-labelled cAMP (cAMP-d2) for binding to an Eu cryptate-labelled anti-cAMP antibody.
(§1) In the absence of cellular cAMP, a maximal signal is produced, which is attributable to the binding of this cAMP-d2 molecule to the antibody. After excitation of the […] at 337 nm, there is a fluorescence resonance energy transfer (FRET) to the Eu cryptate molecules of the anti-cAMP antibody (labelled therewith), followed by a long-lasting emission signal at 665 nm (and at […]). Both signals are measured in a suitable measurement instrument with a time delay, i.e. after decay of the background fluorescence. Any increase in the low FRET signal caused by prostaglandin E2 administration (measured as well ratio change=emission665 nm/emission620 nm*10000) indicates the action of antagonists.
1.2.1. Test for Antagonism (Data Per Well of a 384-Well Plate):
To a test plate with the substance solutions already added (0.05 μl; 100% DMSO, concentration range from 0.8 nM-16.5 μM) were added 4 μl of a cAMP-d2/cell suspension (625000 cells/ml). After a 20-minute preincubation at room temperature (RT), 2 μl of a 3×PGE2 solution (1.5 nM, in PBS-IBMX) were added and incubated in the presence of the agonist for a further 60 mins at RT (volume: ˜6 μl). Next the reaction was stopped by addition of 2 μl of lysis buffer and incubated for a further 20 mins at RT before the actual measurement (volume: ˜8 μl).

[2] = target: EP4 subtype of the human PGE2 receptor (Homo sapiens, UniProt P35408); assay: cAMP antagonism test on the human EP4 receptor (HTRF cAMP detection); settings: selectivity towards hEP4, IC50 measured by cAMP antagonism test
Chain of EP4 subtype of the human PGE2 receptor (P35408 whole entry): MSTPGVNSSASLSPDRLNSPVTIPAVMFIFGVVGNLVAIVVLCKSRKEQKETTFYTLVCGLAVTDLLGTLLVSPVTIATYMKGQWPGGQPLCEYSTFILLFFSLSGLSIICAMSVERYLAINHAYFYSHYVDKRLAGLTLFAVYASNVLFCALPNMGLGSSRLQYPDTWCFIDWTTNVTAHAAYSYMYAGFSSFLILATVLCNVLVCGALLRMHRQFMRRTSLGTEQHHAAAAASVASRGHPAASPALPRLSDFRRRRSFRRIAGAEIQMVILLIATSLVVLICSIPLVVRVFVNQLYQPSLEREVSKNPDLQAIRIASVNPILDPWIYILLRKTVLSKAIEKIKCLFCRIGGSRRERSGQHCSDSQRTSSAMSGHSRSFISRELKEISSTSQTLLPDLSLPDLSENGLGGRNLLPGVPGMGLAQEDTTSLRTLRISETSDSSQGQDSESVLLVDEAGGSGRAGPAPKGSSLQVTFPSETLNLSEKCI
From the text: 2. Detection of Antagonism to the Human Prostaglandin E2 (Subtype EP4) Receptor Signal
The binding of PGE2 to the EP4 subtype of the human PGE2 receptor induces the activation of membrane-located adenylate cyclases and leads to the formation of cAMP. In the presence of the phosphodiesterase inhibitor IBMX, the cAMP accumulated owing to this stimulation and released by cell lysis is used in a competitive detection method. In this test, the cAMP present in the lysate competes with a fluorescence-labelled cAMP (cAMP-d2) for binding to an Eu cryptate-labelled anti-cAMP antibody.
as §1, with “cAMP” for “cAMP,”
2.2.1. Test for Antagonism (Data Per Well of a 384-Well Plate):
To a test plate with the substance solutions already added (0.05 μl; 100% DMSO, concentration range from 0.8 nM-16.5 μM) were added 4 μl of a cAMP-d2/cell suspension (312500 cells/ml). After a 20-minute preincubation at room temperature (RT), 2 μl of a 3×PGE2 solution (0.3 nM, in PBS-IBMX) were added and incubated in the presence of the agonist for a further 60 mins at RT (volume: ˜6 μl). Next the reaction was stopped by addition of 2 μl of lysis buffer and incubated for a further 20 mins at RT before the actual measurement (volume: ˜8 μl).

[3] = target: T1, human PGD receptor (Homo sapiens, UniProt Q13258); assay: cAMP antagonism test on the human prostaglandin D receptor (HTRF cAMP detection); settings: selectivity towards hDP, IC50 measured by cAMP antagonism test
T1 sequence (Q13258 1-359): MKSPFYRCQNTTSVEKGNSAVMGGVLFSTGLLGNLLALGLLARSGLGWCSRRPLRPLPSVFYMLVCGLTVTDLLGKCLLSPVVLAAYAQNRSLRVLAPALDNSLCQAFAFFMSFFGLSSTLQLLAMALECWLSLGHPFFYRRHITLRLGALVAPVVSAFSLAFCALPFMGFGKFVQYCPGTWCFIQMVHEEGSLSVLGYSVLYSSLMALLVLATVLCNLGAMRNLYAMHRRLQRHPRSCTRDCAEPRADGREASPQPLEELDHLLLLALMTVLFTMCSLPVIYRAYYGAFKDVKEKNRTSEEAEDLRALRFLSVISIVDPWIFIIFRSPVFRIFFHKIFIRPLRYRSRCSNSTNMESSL
From the text: 3. Detection of Antagonism to the Human Prostaglandin D Receptor Signal
The binding of prostaglandin D2 to the human PGD receptor induces the activation of membrane-located adenylate cyclases and leads to the formation of cAMP. In the presence of the phosphodiesterase inhibitor IBMX, the cAMP accumulated owing to this stimulation and released by cell lysis is used in a competitive detection method. In this test, the cAMP present in the lysate competes with a fluorescence-labelled cAMP (cAMP-d2) for binding to an Eu cryptate-labelled anti-cAMP antibody.
as §1
3.2.1. Test for Antagonism (Data Per Well of a 384-Well Plate):
To a test plate with the substance solutions already added (0.05 μl; 100% DMSO, concentration range from 0.8 nM-16.5 μM) were added 4 μl of a cAMP-d2/cell suspension (625000 cells/ml). After a 20-minute preincubation at room temperature (RT), 2 μl of a 3×PGD2 solution (6 nM, in PBS-IBMX) were added and incubated in the presence of the agonist for a further 30 mins at RT (volume: ˜6 μl). Next the reaction was stopped by addition of 2 μl of lysis buffer and incubated for a further 20 mins at RT before the actual measurement (volume: ˜8 μl).

Chain of EP2 subtype of the human PGE2 receptor (P43116 whole entry): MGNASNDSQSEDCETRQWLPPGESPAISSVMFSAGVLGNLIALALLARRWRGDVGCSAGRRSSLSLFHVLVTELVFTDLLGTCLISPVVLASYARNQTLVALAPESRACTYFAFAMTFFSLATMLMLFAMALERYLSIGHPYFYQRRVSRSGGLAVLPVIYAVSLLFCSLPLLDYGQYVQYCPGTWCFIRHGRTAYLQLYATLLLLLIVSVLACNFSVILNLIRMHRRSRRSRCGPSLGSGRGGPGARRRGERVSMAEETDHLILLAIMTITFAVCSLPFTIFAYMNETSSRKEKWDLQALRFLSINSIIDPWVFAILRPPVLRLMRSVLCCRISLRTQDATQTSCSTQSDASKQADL

Row | SMILES | IC50 [1] [µM] | Selectivity hEP2/hEP4 [2] | Selectivity hEP2/hDP [3]
1 | COCCNC(=O)c1ccc2nn(CC3CCN(C(=O)c4ccc(OC(C)(C)C)cc4)CC3)cc2c1C [Example 2, 2-({1-[4-tert-(butoxy)benzoyl]piperidin-4-yl}methyl)-N-(2-methoxyethyl)-4-methyl-2H-indazol-5-carboxamide] | 0.0217 | xxx (xxx > 100) | xxx (xxx > 100)
2 | COCCNC(=O)c1ccc2nn(CC3CCN(C(=O)c4ccc(OC(F)(F)F)cc4)CC3)cc2c1C [Example 55, N-(2-methoxyethyl)-4-methyl-2-({1-[4-(trifluoromethoxy)benzoyl]piperidin-4-yl}methyl)-2H-indazol-5-carboxamide] | 0.00967 | xxx (xxx > 100) | xxx (xxx > 100)
3 | Cc1cc2nn(CC3CN(C(=O)c4ccc(-c5ccc(F)cc5)cc4)C3)cc2cc1C(=O)NCC(F)(F)F [Example 203, 2-({1-[(4′-fluorobiphenyl-4-yl)carbonyl]azetidin-3-yl}methyl)-6-methyl-N-(2,2,2-trifluoroethyl)-2H-indazol-5-carboxamide] | 0.0857 | xxx (xxx > 100) | xxx (xxx > 100)
4 | COCCNC(=O)c1ccc2nn(CC3CCN(C(=O)c4ccc(-c5ccc(F)cc5OC)cc4)CC3)cc2c1C [Example 380, 2-({1-[(4′-fluoro-2′-methoxybiphenyl-4-yl)carbonyl]piperidin-4-yl}methyl)-N-(2-methoxyethyl)-4-methyl-2H-indazol-5-carboxamide] | 0.00535 | xxx (xxx > 100) | xxx (xxx > 100)
5 | Cc1c(C(=O)NCC(C)C)ccc2nn(CC3CCN(C(=O)c4ccc(Cl)cc4)CC3)cc12 [Example 243, 2-{[1-(4-chlorobenzoyl)piperidin-4-yl]methyl}-N-isobutyl-4-methyl-2H-indazol-5-carboxamide] | 0.335 | xx (xx: 10-100) | xx (xx: 10-100)
6 | COCCNC(=O)c1cc2cn(CC3CCN(C(=O)c4ccc(S(F)(F)(F)(F)F)cc4)CC3)nc2cc1C [Example 210, N-(2-methoxyethyl)-6-methyl-2-({1-[4-(pentafluoro-λ^6-sulphanyl)benzoyl]-piperidin-4-yl}methyl)-2H-indazol-5-carboxamide] | 0.0195 | xxx (xxx > 100) | xxx (xxx > 100)
7 | COCCNC(=O)c1cc2cn(CC3CN(C(=O)c4ccc(SC(F)(F)F)cc4)C3)nc2cc1C [Example 180, N-(2-methoxyethyl)-6-methyl-2-[(1-{4-[(trifluoromethyl)sulphanyl]benzoyl}azetidin-3-yl)methyl]-2H-indazol-5-carboxamide] | 0.0173 | xxx (xxx > 100) | xxx (xxx > 100)
8 | COCCNC(=O)c1ccc2nn(CC3CCN(C(=O)c4ccc(-c5ccc(C(C)(C)C#N)cc5)cc4)CC3)cc2c1C [Example 372, 2-[(1-{[4′-(1-cyano-1-methylethyl)biphenyl-4-yl]carbonyl}piperidin-4-yl)-methyl]-N-(2-methoxyethyl)-4-methyl-2H-indazol-5-carboxamide] | 0.00729 | xxx (xxx > 100) | xxx (xxx > 100)
9 | Cc1c(C(=O)NCC(F)(F)F)ccc2nn(CC3CCN(C(=O)c4nc(-c5ccccc5)no4)CC3)cc12 [Example 305, 4-methyl-2-({1-[(3-phenyl-1,2,4-oxadiazol-5-yl)carbonyl]piperidin-4-yl}methyl)-N-(2,2,2-trifluoroethyl)-2H-indazol-5-carboxamide] | 0.301 | xx (xx: 10-100) | xx (xx: 10-100)
10 | COCCNC(=O)c1ccc2nn(CC3CCN(C(=O)c4ccc(-c5ccc(OC)cc5F)cc4F)CC3)cc2c1C [Example 364, 2-({1-[(2′,3-difluoro-4′-methoxybiphenyl-4-yl)carbonyl]piperidin-4-yl}methyl)-N-(2-methoxyethyl)-4-methyl-2H-indazol-5-carboxamide] | 0.00661 | xxx (xxx > 100) | xxx (xxx > 100)
11 | COCCNC(=O)c1ccc2nn(CC3CCN(C(=O)c4ccc5ccc(OC)cc5c4)CC3)cc2c1C [Example 344, N-(2-methoxyethyl)-2-{[1-(7-methoxy-2-naphthoyl)piperidin-4-yl]methyl}-4-methyl-2H-indazol-5-carboxamide] | 0.0103 | xxx (xxx > 100) | xxx (xxx > 100)
12 | Cc1c(C(=O)NCC(F)(F)F)ccc2nn(CC3CCN(C(=O)c4ccc(Oc5ccc(C(F)(F)F)cn5)cc4)CC3)cc12 [Example 301, 4-methyl-N-(2,2,2-trifluoroethyl)-2-{[1-(4-{[5-(trifluoromethyl)pyridin-2-yl]-oxy}benzoyl)piperidin-4-yl]methyl}-2H-indazol-5-carboxamide] | 0.0245 | xxx (xxx > 100) | xxx (xxx > 100)
13 | Cc1c(C(=O)NCC(F)(F)F)ccc2nn(CC3CCN(C(=O)c4cnc(-c5ccccc5)s4)CC3)cc12 [Example 298, 4-methyl-2-({1-[(2-phenylthiazol-5-yl)carbonyl]piperidin-4-yl}methyl)-N-(2,2,2-trifluoroethyl)-2H-indazol-5-carboxamide] | 0.345 | xx (xx: 10-100) | xx (xx: 10-100)
